PubChem BioAssay (NCI)
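Cultured in 96-well plates, cells were exposed to test compound for 48 hours across five concentrations. TGI is the concentration that stops growth completely.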

Assays:
Test in all cases: inhibition of tumour cell growth, NCI panel, 48 h
HCT-15 colon = test system: HCT-15 colon
NCI-H23 lung = test system: NCI-H23 lung
M14 melanoma = test system: M14 melanoma
OVCAR-3 ovarian = test system: OVCAR-3 ovarian
SF-268 CNS = test system: SF-268 CNS
NCI-H460 lung = test system: NCI-H460 lung
SNB-19 CNS = test system: SNB-19 CNS
UO-31 renal = test system: UO-31 renal
MOLT-4 leukemia = test system: MOLT-4 leukemia
IGROV1 ovarian = test system: IGROV1 ovarian
COLO 205 colon = test system: COLO 205 colon
SN12C renal = test system: SN12C renal
MALME-3M melanoma = test system: MALME-3M melanoma
SR leukemia = test system: SR leukemia
T-47D breast = test system: T-47D breast
CAKI-1 renal = test system: CAKI-1 renal
PC-3 prostate = test system: PC-3 prostate
HOP-92 NSCLC = test system: HOP-92 NSCLC
HL-60(TB) leukemia = test system: HL-60(TB) leukemia
SF-539 CNS = test system: SF-539 CNS

Row | Structure (SMILES) | TGI (HCT-15 colon) [µM] | TGI (NCI-H23 lung) [µM] | TGI (M14 melanoma) [µM] | TGI (OVCAR-3 ovarian) [µM] | TGI (SF-268 CNS) [µM] | TGI (NCI-H460 lung) [µM] | TGI (SNB-19 CNS) [µM] | TGI (UO-31 renal) [µM] | TGI (MOLT-4 leukemia) [µM] | TGI (IGROV1 ovarian) [µM] | TGI (COLO 205 colon) [µM] | TGI (SN12C renal) [µM] | TGI (MALME-3M melanoma) [µM] | TGI (SR leukemia) [µM] | TGI (T-47D breast) [µM] | TGI (CAKI-1 renal) [µM] | TGI (PC-3 prostate) [µM] | TGI (HOP-92 NSCLC) [µM] | TGI (HL-60(TB) leukemia) [µM] | TGI (SF-539 CNS) [µM]
1 | NCCCC[C@H](N)C(=O)Nc1ccc(-c2nc3ccccc3s2)cc1 | 33.7 | 67.7 | 25.1 | 37.2 | 55.6 | 34.9 | 32.3 | 26 | 31.2 | 31.5 | 33.6 | 74.3 | 34.9 | 36.2 | > 100 | > 100 | > 100 | > 100 | – | –
2 | Cn1c(=O)c2c(nc3n2CCCC(=O)N3CC(O)CCl)n(C)c1=O (stereo not drawn) | > 100 | > 100 | > 100 | > 100 | > 100 | > 100 | > 100 | > 100 | > 100 | > 100 | > 100 | > 100 | – | > 100 | > 100 | > 100 | > 100 | > 100 | > 100 | –
3 | O=C1c2ccccc2-c2nnc3c(c21)-c1ccccc1C3 | > 100 | > 100 | > 100 | – | > 100 | > 100 | > 100 | > 100 | 80.8 | – | > 100 | > 100 | > 100 | > 100 | > 100 | > 100 | > 100 | > 100 | > 100 | > 100
4 | O=C1C(=O)N(c2cccc(C(F)(F)F)c2)C(=S)N1c1ccccc1 | 40.7 | 82.9 | – | – | > 100 | 6.49 | > 100 | 86.5 | > 100 | 63.2 | 30.5 | > 100 | > 100 | > 100 | > 100 | 79.4 | > 100 | 50.7 | 84.5 | 80.6
5 | C=CCN(C(=O)OC(C)(C)C)[C@H](C)C(=O)N[C@@H](C)C(=O)OC | > 100 | > 100 | > 100 | > 100 | > 100 | – | > 100 | > 100 | > 100 | > 100 | > 100 | > 100 | > 100 | > 100 | > 100 | > 100 | > 100 | > 100 | > 100 | > 100
6 | COC(=O)C1(C#N)C(C)(C)N=C(c2ccccc2)C12CCCCC2 (stereo not drawn) | > 100 | > 100 | > 100 | > 100 | > 100 | > 100 | > 100 | > 100 | > 100 | > 100 | > 100 | > 100 | > 100 | > 100 | > 100 | > 100 | > 100 | > 100 | > 100 | > 100
7 | COc1ccc(CCCNC(=O)c2cc(OC)c(OC)cc2CCO)cc1OC | > 100 | > 100 | > 100 | > 100 | > 100 | > 100 | > 100 | > 100 | > 100 | > 100 | > 100 | > 100 | – | > 100 | > 100 | > 100 | > 100 | > 100 | > 100 | > 100
8 | CC(=O)OCC1OC(Nn2c(=O)[nH]c3ccccc3c2=O)C(OC(C)=O)C(OC(C)=O)C1OC(C)=O (stereo not drawn) | > 100 | > 100 | > 100 | > 100 | > 100 | > 100 | > 100 | > 100 | > 100 | > 100 | > 100 | > 100 | > 100 | > 100 | > 100 | > 100 | > 100 | > 100 | > 100 | > 100
9 | NC(=O)NCCCC(NC(=O)OCCCCCCn1ccc(=O)[nH]c1=O)C(=O)O (stereo not drawn) | > 100 | > 100 | > 100 | > 100 | > 100 | > 100 | > 100 | > 100 | > 100 | > 100 | > 100 | > 100 | – | > 100 | > 100 | > 100 | > 100 | > 100 | > 100 | > 100
10 | CC(=O)Nc1c(C)cc2c(nc3n2CCC3OC(C)=O)c1[N+](=O)[O-] (stereo not drawn) | > 100 | > 100 | > 100 | > 100 | > 100 | > 100 | > 100 | > 100 | > 100 | > 100 | > 100 | > 100 | > 100 | > 100 | > 100 | > 100 | > 100 | > 100 | > 100 | > 100
11 | CCOC(=O)C1(C(=O)OCC)OC(C)=NC1(C(=O)OC)C(=O)OC | > 100 | > 100 | > 100 | > 100 | > 100 | > 100 | > 100 | > 100 | > 100 | > 100 | > 100 | > 100 | > 100 | > 100 | > 100 | > 100 | > 100 | > 26.4 | > 100 | > 100
12 | O=c1c2cc3c(=O)n4c(cc(-c5ccccc5)c5cc(Cl)ccc54)nc3cc2nc2cc(-c3ccccc3)c3cc(Cl)ccc3n12 | > 100 | > 100 | > 100 | > 100 | > 100 | > 100 | > 100 | > 100 | > 100 | > 100 | > 100 | > 100 | – | > 100 | > 100 | > 100 | > 100 | > 100 | – | > 100
13 | CC1(C)Cc2nc3c(cc2C(=O)C1C=N/C(C#N)=C(\N)C#N)C(=O)C(C=N/C(C#N)=C(\N)C#N)C(C)(C)C3 (stereo not drawn) | 4.48 | 7.36 | 3.05 | 11 | 3.39 | 8.21 | 21.5 | 3.51 | > 100 | 3.56 | 7.04 | 5.23 | 2.84 | > 100 | 4.3 | 3.54 | 5.35 | 3.33 | 10.1 | 2.41
14 | NC(=O)Cc1nc2c(N)ncnc2n1C1OC(CO)C(O)C1O (stereo not drawn) | > 100 | > 100 | > 100 | > 100 | > 100 | > 100 | > 100 | > 100 | > 100 | > 100 | > 100 | > 100 | > 100 | > 100 | > 100 | > 100 | > 100 | > 100 | > 100 | > 100
15 | C=C(CCC/C(C)=C/C=C/[C@@H](C)CCCc1ccoc1)C[C@@H]1OC(=O)[C@H](C)[C@@H]1O | 21.3 | 16.6 | 19.9 | 16 | 18.5 | 29.8 | 17.8 | 15.9 | > 50 | 21.7 | 20.5 | 20.6 | 18.1 | > 50 | 26.2 | 20.1 | 15.6 | 19.6 | – | 19.4
16 | O=C1CSC(c2ccccc2[N+](=O)[O-])N1c1ccc(-c2ccc(-n3c(-c4ccccc4)nc4ccccc4c3=O)cc2)cc1 (stereo not drawn) | > 100 | – | > 100 | > 100 | > 100 | > 100 | > 100 | > 100 | > 100 | > 100 | > 100 | > 100 | > 100 | > 100 | > 100 | > 100 | > 100 | > 100 | > 100 | > 100
17 | COc1ccccc1C1ON=C(c2ccc([N+](=O)[O-])cc2)N1C12CC3CC(CC(C3)C1)C2 (stereo not drawn) | > 100 | > 100 | > 100 | > 100 | > 100 | > 100 | > 100 | > 100 | > 100 | > 100 | > 100 | > 100 | > 100 | > 100 | > 100 | > 100 | > 100 | > 100 | 42.5 | > 100
18 | CC1(C)OC(=O)N(c2ccccc2)C12C=Cc1cccc([N+](=O)[O-])c1O2 (stereo not drawn) | > 100 | > 100 | > 100 | > 100 | > 100 | > 100 | > 100 | > 100 | 74.1 | > 100 | > 100 | > 100 | – | 50.2 | 94.9 | > 100 | > 100 | > 100 | 58.7 | –
19 | O=c1ccn(COC(COCc2ccccc2)COCc2ccccc2)c(=O)[nH]1 | > 100 | > 100 | > 100 | > 100 | – | > 100 | > 100 | > 100 | > 100 | > 100 | > 100 | > 100 | > 100 | > 100 | > 100 | > 100 | > 100 | > 100 | > 100 | –
20 | COc1cc(-c2cc(=O)c3c(O)c(CC=C(C)C)c(O)cc3o2)ccc1O | > 50 | > 50 | 39.7 | > 50 | > 50 | > 50 | > 50 | > 50 | > 50 | > 50 | > 50 | > 50 | > 50 | 41.9 | 40.8 | 28 | > 50 | > 50 | > 50 | 47.6
21 | COC(=O)C(Cc1c[nH]c2ccccc12)NC(=O)c1ccc(-c2ccc(Cl)cc2Cl)o1 (stereo not drawn) | > 100 | > 100 | > 100 | > 100 | > 100 | > 100 | > 100 | > 100 | > 100 | > 100 | > 100 | > 100 | > 100 | > 100 | > 100 | > 100 | 49.5 | 71.4 | > 100 | 91
22 | COC1CN(C)C(=Nc2cccc3ccccc23)S1 (stereo not drawn) | > 10 | > 10 | > 10 | – | > 10 | – | > 10 | – | > 10 | > 10 | > 10 | > 10 | > 10 | > 10 | > 10 | > 10 | > 10 | > 10 | > 10 | > 10
23 | Cc1c2c(c(O)c3c(O)cccc13)C(=O)C1(O)C(O)=C(C(=O)NCNc3ccc(C(N)=O)cn3)C(=O)C(N(C)C)C1C2 (stereo not drawn) | 8.56 | 39.3 | > 100 | 6.84 | 79.7 | – | – | – | 9.41 | 6.27 | > 100 | > 100 | > 100 | 9.53 | > 100 | 48.4 | 30.7 | 6.92 | – | 7.42
24 | COc1ccc(/C=C2\CCS(=O)(=O)c3ccccc3C2=O)cc1 | 43.1 | 47.6 | > 100 | 93.8 | 98.2 | 57 | 70.6 | 38 | 65.2 | 43.1 | 30.5 | 77.3 | – | 40.5 | 74.3 | 67.5 | 75.3 | 71.7 | 66.4 | 67.4
